# Source: US7049313B2, “ATM inhibitors” (Kudos Pharmaceuticals Ltd., priority 2002, dated 2006)
# pIC50: −log10 of the molar value.
# Target: T1, ATM (Homo sapiens, UniProt Q13315)
# T1 construct: ATM protein was immunoprecipitated from HeLa cell nuclear extract; endogenous in cells; host or cells: HeLa cell nuclear extract (immunoprecipitate)
# Test: In vitro ATM inhibition assay (phosphorylation of GSTp53N66 on serine 15)
# Type: biochemical
# Description: In vitro ATM inhibition Assays
# In order to assess the inhibitory action of the compounds against ATM in vitro, the following assay was used to determine IC50 values.
# ATM protein was immunoprecipitated from HeLa cell nuclear extract using rabbit polyclonal anti-sera raised to the C-terminal ˜500 amino-acid residues of the human ATM protein. The immunoprecipitation was performed according to the methodology described by Banin, S. et al. (1998). 10 μl of immunoprecipitated ATM in Buffer C (50 mM Hepes, pH 7.4, 6 mM MgCl2, 150 mM NaCl, 0.1 mM sodium orthovanadate, 4 mM MnCl2, 0.1 mM dithiothreitol, 10% glycerol) was added to 32.5 μl of buffer C containing 1 μg of the ATM substrate GSTp53N66 in a V-bottomed 96 well polypropylene plate. The GSTp53N66 substrate is the amino terminal 66 amino acid residues of human wild type p53 fused to glutathione S-transferase. ATM phosphorylates p53 on the residue serine 15 (Banin, S. et al. (1998)). Varying concentrations of inhibitor were then added. […] After 10 minutes of incubation at 37° C., the reactions were initiated by the addition of 5 μl of 500 μM Na-ATP. After 1 hour with shaking at 37° C., 150 μl of phosphate buffered saline (PBS) was added to the reaction and the plate centrifuged at 1500 rpm for 10 minutes. 5 μl of the reaction was then transferred to a 96 well opaque white plate containing 45 μl of PBS to allow the GSTp53N66 substrate to bind to the plate wells. The plate was covered and incubated at room temperature for 1 hour with shaking before discarding the contents. The plate wells were washed twice by the addition of PBS prior to the addition of 3% (w/v) bovine serum albumin (BSA) in PBS. The plate was incubated at room temperature for 1 hour with shaking before discarding the contents and washing twice with PBS. To the wells, 50 μl of a 1:10,000 dilution of primary phosphoserine-15 antibody (Cell Signaling Technology, #9284L) in 3% BSA/PBS was added to detect the phosphorylation event on the serine 15 residue of p53 elicited by the ATM kinase. After 1 hour of incubation at room temperature with shaking, the wells were washed four times with PBS prior to the addition of an anti-rabbit HRP conjugated secondary antibody (Pierce, 31462) with shaking for 1 hour at room temperature. The wells were then washed four times with PBS before the addition of chemiluminescence reagent (NEN Renaissance, NEL105). The plate was then shaken briefly, covered with a transparent plate seal and transferred to a TopCount NXT for chemiluminescent counting. Counts per second, following a one second counting time, were recorded for each reaction.
# The enzyme activity for each compound is then calculated using the following equation: […]
# T1 sequence (Q13315 whole entry): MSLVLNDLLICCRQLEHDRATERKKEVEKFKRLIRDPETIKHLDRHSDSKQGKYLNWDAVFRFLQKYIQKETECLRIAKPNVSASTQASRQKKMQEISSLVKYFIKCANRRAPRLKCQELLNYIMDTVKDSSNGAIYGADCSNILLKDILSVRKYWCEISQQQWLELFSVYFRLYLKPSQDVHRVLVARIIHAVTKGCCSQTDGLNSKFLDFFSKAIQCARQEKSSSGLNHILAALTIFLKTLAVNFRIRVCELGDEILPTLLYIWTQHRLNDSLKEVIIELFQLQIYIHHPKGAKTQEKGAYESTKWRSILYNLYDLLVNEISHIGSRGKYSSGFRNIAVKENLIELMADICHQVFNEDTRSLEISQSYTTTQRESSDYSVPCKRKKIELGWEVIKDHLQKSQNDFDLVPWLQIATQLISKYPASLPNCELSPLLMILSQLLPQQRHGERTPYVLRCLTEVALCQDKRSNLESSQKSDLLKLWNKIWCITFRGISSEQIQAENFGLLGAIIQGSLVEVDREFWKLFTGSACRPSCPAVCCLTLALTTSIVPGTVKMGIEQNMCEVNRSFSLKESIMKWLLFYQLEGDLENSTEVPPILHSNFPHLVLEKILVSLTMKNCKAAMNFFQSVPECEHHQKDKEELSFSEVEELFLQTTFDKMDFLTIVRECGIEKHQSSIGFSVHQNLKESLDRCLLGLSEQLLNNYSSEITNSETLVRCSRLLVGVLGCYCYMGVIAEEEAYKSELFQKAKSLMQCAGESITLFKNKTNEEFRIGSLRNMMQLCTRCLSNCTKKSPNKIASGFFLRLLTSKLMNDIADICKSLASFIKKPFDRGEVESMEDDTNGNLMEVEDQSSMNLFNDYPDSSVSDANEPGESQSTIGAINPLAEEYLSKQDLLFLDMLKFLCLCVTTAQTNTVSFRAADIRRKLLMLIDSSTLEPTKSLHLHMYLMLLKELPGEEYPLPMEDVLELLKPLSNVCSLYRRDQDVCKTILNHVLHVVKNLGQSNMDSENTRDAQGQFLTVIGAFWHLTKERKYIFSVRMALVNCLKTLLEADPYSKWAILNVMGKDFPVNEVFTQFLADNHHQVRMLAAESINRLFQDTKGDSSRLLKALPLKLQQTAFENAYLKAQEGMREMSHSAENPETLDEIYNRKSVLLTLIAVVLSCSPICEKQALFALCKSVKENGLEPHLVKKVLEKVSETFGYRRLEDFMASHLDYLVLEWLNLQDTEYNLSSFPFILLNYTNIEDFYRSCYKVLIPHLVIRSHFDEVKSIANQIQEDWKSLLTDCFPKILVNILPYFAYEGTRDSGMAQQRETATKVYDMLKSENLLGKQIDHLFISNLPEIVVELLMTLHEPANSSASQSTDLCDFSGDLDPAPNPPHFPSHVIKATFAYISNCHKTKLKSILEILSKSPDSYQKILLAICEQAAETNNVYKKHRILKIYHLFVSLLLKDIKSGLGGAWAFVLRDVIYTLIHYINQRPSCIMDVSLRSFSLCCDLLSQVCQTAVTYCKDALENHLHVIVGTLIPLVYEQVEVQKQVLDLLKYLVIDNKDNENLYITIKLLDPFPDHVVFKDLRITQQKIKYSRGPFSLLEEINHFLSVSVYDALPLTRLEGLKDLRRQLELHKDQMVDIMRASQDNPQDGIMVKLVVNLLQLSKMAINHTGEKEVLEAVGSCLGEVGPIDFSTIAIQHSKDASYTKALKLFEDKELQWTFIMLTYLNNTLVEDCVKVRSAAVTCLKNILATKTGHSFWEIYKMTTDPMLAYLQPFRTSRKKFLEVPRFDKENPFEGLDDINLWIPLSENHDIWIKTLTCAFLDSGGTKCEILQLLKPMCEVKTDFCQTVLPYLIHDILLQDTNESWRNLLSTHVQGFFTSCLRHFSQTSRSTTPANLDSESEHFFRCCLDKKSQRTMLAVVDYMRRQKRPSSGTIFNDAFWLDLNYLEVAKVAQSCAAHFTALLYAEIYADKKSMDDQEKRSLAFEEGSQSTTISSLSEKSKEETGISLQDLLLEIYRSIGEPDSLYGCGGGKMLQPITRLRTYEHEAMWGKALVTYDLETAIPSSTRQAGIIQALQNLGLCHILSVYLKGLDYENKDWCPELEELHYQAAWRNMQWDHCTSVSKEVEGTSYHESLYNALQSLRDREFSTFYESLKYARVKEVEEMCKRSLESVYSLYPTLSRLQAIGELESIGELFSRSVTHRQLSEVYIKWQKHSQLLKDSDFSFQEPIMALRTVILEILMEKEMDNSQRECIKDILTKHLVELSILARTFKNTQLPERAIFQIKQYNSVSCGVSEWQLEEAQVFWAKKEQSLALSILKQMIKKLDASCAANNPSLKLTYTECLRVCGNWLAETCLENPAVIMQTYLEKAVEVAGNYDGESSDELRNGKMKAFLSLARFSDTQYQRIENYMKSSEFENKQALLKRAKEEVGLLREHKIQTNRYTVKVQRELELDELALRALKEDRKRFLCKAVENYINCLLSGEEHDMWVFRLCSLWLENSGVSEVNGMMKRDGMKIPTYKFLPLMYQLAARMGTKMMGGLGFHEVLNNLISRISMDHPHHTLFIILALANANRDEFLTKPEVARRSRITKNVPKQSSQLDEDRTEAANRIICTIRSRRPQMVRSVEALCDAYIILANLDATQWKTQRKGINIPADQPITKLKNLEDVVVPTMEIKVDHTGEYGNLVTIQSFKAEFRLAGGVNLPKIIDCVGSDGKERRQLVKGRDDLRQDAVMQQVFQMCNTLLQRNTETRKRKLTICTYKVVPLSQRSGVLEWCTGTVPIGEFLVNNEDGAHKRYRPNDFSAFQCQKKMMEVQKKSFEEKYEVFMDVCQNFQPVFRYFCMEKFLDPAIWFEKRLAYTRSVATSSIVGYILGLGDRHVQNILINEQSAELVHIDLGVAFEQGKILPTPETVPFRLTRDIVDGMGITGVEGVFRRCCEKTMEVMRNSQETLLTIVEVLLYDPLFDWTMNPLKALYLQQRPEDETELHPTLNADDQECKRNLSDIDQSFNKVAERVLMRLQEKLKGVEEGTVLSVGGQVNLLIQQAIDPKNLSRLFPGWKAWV
row,SMILES,pIC50
1,O=C(CCNCCCN1CCOCC1)Nc1ccc2c(c1)Cc1cccc(-c3cc(=O)cc(N4CCOCC4)o3)c1S2 [Compound 80],> 6.70
2,O=C(NN1CCOCC1)c1ccc2c(c1)Sc1cccc(-c3cc(=O)cc(N4CCOCC4)o3)c1S2 [Compound 165],> 6.70
3,C[C@@H]1CN(C(=O)c2ccc3c(c2)Sc2cccc(-c4cc(=O)cc(N5CCOCC5)o4)c2S3)C[C@H](C)O1 [Compound 159],> 6.70
4,CN1CCCC1CCNC(=O)c1ccc2c(c1)Sc1cccc(-c3cc(=O)cc(N4CCOCC4)o3)c1S2 (stereo not shown) [Compound 168],> 6.70
5,O=C(CNCCO)Nc1ccc2c(c1)Cc1cccc(-c3cc(=O)cc(N4CCOCC4)o3)c1S2 [Compound 56],> 6.70
6,"O=c1cc(-c2ccccc2Sc2ccccc2)oc(N2CCOCC2)c1 [Compound 9, 2-(2-Phenylsulfanyl-phenyl)-6-morpholin-4-yl-pyran-4-one]",> 4.70
7,O=C(CN(CCO)CCO)Nc1ccc2c(c1)Cc1cccc(-c3cc(=O)cc(N4CCOCC4)o3)c1S2 [Compound 54],> 6.70
8,CCCNC(=O)c1ccc2c(c1)Sc1cccc(-c3cc(=O)cc(N4CCOCC4)o3)c1S2 [Compound 144],> 6.70
9,O=C(CCNCCO)Nc1ccc2c(c1)Cc1cccc(-c3cc(=O)cc(N4CCOCC4)o3)c1S2 [Compound 74],> 6.70
10,CN1CCCN(CCC(=O)Nc2ccc3c(c2)Cc2cccc(-c4cc(=O)cc(N5CCOCC5)o4)c2S3)CC1 [Compound 77],> 6.70
11,O=C(NCCN1CCCCC1)c1ccc2c(c1)Sc1cccc(-c3cc(=O)cc(N4CCOCC4)o3)c1S2 [Compound 166],> 6.70
12,COCCN(CCOC)CC(=O)Nc1ccc2c(c1)Cc1cccc(-c3cc(=O)cc(N4CCOCC4)o3)c1S2 [Compound 55],> 6.70
13,CC1CN(C(=O)c2ccc3c(c2)Sc2cccc(-c4cc(=O)cc(N5CCOCC5)o4)c2S3)CC(C)O1 (stereo not shown) [Compound 158],> 6.70
14,CC(C)CNC(=O)c1ccc2c(c1)Sc1cccc(-c3cc(=O)cc(N4CCOCC4)o3)c1S2 [Compound 145],> 6.70
15,CC(C)(C)OC(=O)N1CCN(CCNC(=O)c2ccc3c(c2)Sc2cccc(-c4cc(=O)cc(N5CCOCC5)o4)c2S3)CC1 [Compound 180],> 6.70
16,O=C(NC1CCCC1)c1ccc2c(c1)Sc1cccc(-c3cc(=O)cc(N4CCOCC4)o3)c1S2 [Compound 155],> 6.70
17,O=C(NCC1CCCCC1)c1ccc2c(c1)Sc1cccc(-c3cc(=O)cc(N4CCOCC4)o3)c1S2 [Compound 154],> 6.70
18,O=C(NCC(F)(F)F)c1ccc2c(c1)Sc1cccc(-c3cc(=O)cc(N4CCOCC4)o3)c1S2 [Compound 148],> 6.70
19,O=C(CSc1ncn[nH]1)Nc1ccc2c(c1)Cc1cccc(-c3cc(=O)cc(N4CCOCC4)o3)c1S2 [Compound 64],> 6.70
20,O=C(NCc1ccncc1)c1ccc2c(c1)Sc1cccc(-c3cc(=O)cc(N4CCOCC4)o3)c1S2 [Compound 172],> 6.70
21,O=C(NC1CCCCC1)c1ccc2c(c1)Sc1cccc(-c3cc(=O)cc(N4CCOCC4)o3)c1S2 [Compound 151],> 6.70
22,CCN(CC)CCNC(=O)c1ccc2c(c1)Sc1cccc(-c3cc(=O)cc(N4CCOCC4)o3)c1S2 [Compound 181],> 6.70
23,O=C(CCN1CCCC1)Nc1ccc2c(c1)Cc1cccc(-c3cc(=O)cc(N4CCOCC4)o3)c1S2 [Compound 76],> 6.70
24,CC(=O)N1CCC(C(=O)Nc2ccc3c(c2)Cc2cccc(-c4cc(=O)cc(N5CCOCC5)o4)c2S3)CC1 [Compound 36],> 6.70
25,O=C(c1ccc2c(c1)Sc1cccc(-c3cc(=O)cc(N4CCOCC4)o3)c1S2)N1CCCCC1 [Compound 157],> 6.70
26,O=C(CNCC1CCCO1)Nc1ccc2c(c1)Cc1cccc(-c3cc(=O)cc(N4CCOCC4)o3)c1S2 (stereo not shown) [Compound 68],> 6.70
27,COCCN(CCOC)CCC(=O)Nc1ccc2c(c1)Cc1cccc(-c3cc(=O)cc(N4CCOCC4)o3)c1S2 [Compound 73],> 6.70
28,"S=c1cc(-c2cccc3c2Sc2ccccc2S3)oc(N2CCOCC2)c1 [Compound 18, 2-Thianthren-1-yl-6-morpholin-4-yl-pyran-4-thione]",> 6.70

# Other lines, results leading:
row,pIC50,SMILES
1,> 6.70,N#Cc1ccc(C(=O)Nc2ccc(-c3cc(=O)cc(N4CCOCC4)o3)c3c2Cc2ccccc2S3)cc1 [Compound 113]
2,> 6.70,CC(=O)Oc1ccccc1C(=O)Nc1ccc(-c2cc(=O)cc(N3CCOCC3)o2)c2c1Cc1ccccc1S2 [Compound 109]
3,> 6.70,O=C(Nc1ccc2c(c1)Cc1cccc(-c3cc(=O)cc(N4CCOCC4)o3)c1S2)c1csc(-c2cccs2)n1 [Compound 46]
4,> 6.70,CC(C)(C)OC(=O)Nc1ccc(-c2cc(=O)cc(N3CCOCC3)o2)c2c1Cc1ccccc1S2 [Compound 127]
5,> 6.70,NCC(=O)Nc1ccc2c(c1)Cc1cccc(-c3cc(=O)cc(N4CCOCC4)o3)c1S2 [Compound 66]
6,> 6.70,Cc1noc(C)c1C(=O)Nc1ccc2c(c1)Cc1cccc(-c3cc(=O)cc(N4CCOCC4)o3)c1S2 [Compound 33]
7,> 6.70,COc1ccc(CNCC(=O)Nc2ccc3c(c2)Cc2cccc(-c4cc(=O)cc(N5CCOCC5)o4)c2S3)cc1 [Compound 63]
8,> 6.70,COc1ccccc1C(=O)Nc1ccc2c(c1)Cc1cccc(-c3cc(=O)cc(N4CCOCC4)o3)c1S2 [Compound 29]
9,> 6.70,COC(=O)C(=O)Nc1ccc(-c2cc(=O)cc(N3CCOCC3)o2)c2c1Cc1ccccc1S2 [Compound 116]
10,> 6.70,O=c1cc(-c2ccc(OCCSc3ncn[nH]3)c3c2Cc2ccccc2S3)oc(N2CCOCC2)c1 [Compound 102]
11,> 6.70,"COC(=O)c1ccc2c(c1)Sc1cccc(-c3cc(=O)cc(N4CCOCC4)o3)c1S2 [Compound 137, 6-(6-Morpholin-4-yl-4-oxo-4H-pyran-2-yl)-thianthrene-2-carboxylic acid methyl ester]"
12,> 6.70,O=C(Nc1ccc(-c2cc(=O)cc(N3CCOCC3)o2)c2c1Cc1ccccc1S2)c1ccc2nsnc2c1 [Compound 112]
13,> 6.70,"CC(C)(C)OC(=O)N1c2ccccc2Sc2c(-c3cc(=O)cc(N4CCOCC4)o3)cccc21 [Compound 134, 4-(6-Morpholin-4-yl-4-oxo-4H-pyran-2-yl)-phenothiazine-10-carboxylic acid tert-butyl ester]"
14,> 6.70,O=C(O)C1CC1C(=O)Nc1ccc2c(c1)Cc1cccc(-c3cc(=O)cc(N4CCOCC4)o3)c1S2 (stereo not shown) [Compound 49]
15,> 6.70,N#Cc1cccc(NC(=O)Nc2ccc(-c3cc(=O)cc(N4CCOCC4)o3)c3c2Cc2ccccc2S3)c1 [Compound 117]
16,> 6.70,O=C(Nc1ccc(-c2cc(=O)cc(N3CCOCC3)o2)c2c1Cc1ccccc1S2)c1cccnc1 [Compound 119]
17,> 6.70,O=C(Cc1cccs1)Nc1ccc2c(c1)Cc1cccc(-c3cc(=O)cc(N4CCOCC4)o3)c1S2 [Compound 31]
18,> 6.70,CSc1ncccc1C(=O)Nc1ccc(-c2cc(=O)cc(N3CCOCC3)o2)c2c1Cc1ccccc1S2 [Compound 122]
19,> 6.70,Cn1nc(O)cc1C(=O)Nc1ccc2c(c1)Cc1cccc(-c3cc(=O)cc(N4CCOCC4)o3)c1S2 [Compound 35]
20,> 6.70,O=C(Nc1ccc2c(c1)Cc1cccc(-c3cc(=O)cc(N4CCOCC4)o3)c1S2)c1ccc2c(c1)CCO2 [Compound 43]
21,> 6.70,O=C(O)CCC(=O)Nc1ccc2c(c1)Cc1cccc(-c3cc(=O)cc(N4CCOCC4)o3)c1S2 [Compound 48]
